Test systems include HT29 colon; SF-268 CNS; SN12C renal; A549 NSCLC; HCT-116 colon; HCT-15 colon; EKVX NSCLC; BT-549 breast; OVCAR-8 ovarian; SK-MEL-2 melanoma.
What all share (test): growth of human tumour cells (NCI), 48 h

The structures appear in SMILES notation.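 Method: 48-hour compound exposure of cells in 96-well plates, five concentrations, linear interpolation of endpoints. At the GI50, growth is halved. TGI: concentration producing complete growth inhibition.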 Some results are limits rather than exact numbers.

As for `CS(=O)(=O)c1ccc(Nc2nc(N[C@H]3CCCC[C@H]3N)nc3cc[nH]c(=O)c23)cc1`, the GI50 in the assay on HT29 colon was 2.48 µM; in the assay on SF-268 CNS, 1.33 µM; in the assay with SN12C renal it was 2.76 µM; in the assay on A549 NSCLC, 3.87 µM; with HCT-116 colon, 0.615 µM; with HCT-15 colon, 26.7 µM. Further, the GI50 in the assay on EKVX NSCLC is 1.3 µM; with BT-549 breast, 1.63 µM; with OVCAR-8 ovarian, 2.68 µM. Also, the TGI is 11.8 µM in the assay on HT29 colon; 4.26 µM with SF-268 CNS; more than 100 µM in the assay on SN12C renal; more than 100 µM in the assay with A549 NSCLC; 16.8 µM in the assay on HCT-116 colon; more than 100 µM in the assay with HCT-15 colon. Moreover, the TGI with EKVX NSCLC turned out to be 5.41 µM; in the assay on BT-549 breast it was 5.51 µM; in the assay on OVCAR-8 ovarian, 20.3 µM.

On to `COc1cccc2cc(N(C)c3nc(C)nc4c3CCC4)ccc12`, for which the GI50 in the assay on SK-MEL-2 melanoma, in the assay with HT29 colon, with SF-268 CNS, in the assay with SN12C renal, in the assay on A549 NSCLC and in the assay with HCT-116 colon was less than 0.01 µM throughout. Besides, the GI50 in the assay on HCT-15 colon, with EKVX NSCLC, in the assay with BT-549 breast and in the assay on OVCAR-8 ovarian was less than 0.01 µM each time. The TGI is 14.2 µM in the assay with SK-MEL-2 melanoma; 0.608 µM in the assay on HT29 colon; 15.6 µM with SF-268 CNS; 22.4 µM with SN12C renal; 14.2 µM in the assay with A549 NSCLC; 10.4 µM with HCT-116 colon. Moreover, the TGI stood at 6.41 µM in the assay on HCT-15 colon, 30.7 µM with EKVX NSCLC, 11 µM in the assay with BT-549 breast and 19.2 µM with OVCAR-8 ovarian.

Take `CC(C)OC(=S)Nc1ccc(Cl)c(/C=N/OC(C)(C)C)c1`: the TGI in the assay with SK-MEL-2 melanoma stood at 37.5 µM; in the assay on HT29 colon, 28.6 µM; with SF-268 CNS, 40.4 µM; in the assay with SN12C renal, 31.6 µM; in the assay with A549 NSCLC, 40 µM; in the assay with HCT-116 colon, 29.9 µM. The TGI in the assay on HCT-15 colon amounted to 32.4 µM; with EKVX NSCLC it was 36.3 µM; with BT-549 breast it was 34.1 µM; in the assay on OVCAR-8 ovarian, 17 µM.

As to `Cc1cc(C)c(C#N)c(Sc2nc(C)c([N+](=O)[O-])c(C)c2C#N)n1`, the GI50 was 2.21 µM in the assay with SK-MEL-2 melanoma; 3.71 µM with HT29 colon; 3.26 µM in the assay with SF-268 CNS; 2.26 µM with SN12C renal; 1.94 µM in the assay with HCT-116 colon; 2.32 µM in the assay with HCT-15 colon. In addition, the GI50 in the assay with BT-549 breast is 2.66 µM; in the assay with OVCAR-8 ovarian, 3.03 µM. Moreover, the TGI in the assay on SK-MEL-2 melanoma was found to be 5.86 µM; with HT29 colon, 10.8 µM; with SF-268 CNS, 11.8 µM; in the assay with SN12C renal, 5.67 µM; in the assay with HCT-116 colon, 4.18 µM; in the assay on HCT-15 colon, 6.25 µM. Further, the results for the TGI with BT-549 breast and in the assay with OVCAR-8 ovarian were 7.5 µM and 10.5 µM, respectively.

As to `COc1ccc(-c2nc(-c3nc4ccc(C)cc4[nH]3)cc3c2[nH]c2ccccc23)cc1`, the GI50 was 3.11 µM in the assay with SK-MEL-2 melanoma; 5.29 µM in the assay on HT29 colon; 6.8 µM in the assay with SF-268 CNS; 3.96 µM with SN12C renal; 3.43 µM with A549 NSCLC; 3.55 µM with HCT-116 colon. Also, the GI50 in the assay with HCT-15 colon is 3.2 µM; in the assay with BT-549 breast, 6.88 µM; in the assay on OVCAR-8 ovarian, 3.02 µM. Also, the TGI in the assay on SK-MEL-2 melanoma is 9.22 µM; in the assay on HT29 colon it was more than 100 µM; in the assay with SF-268 CNS it was more than 100 µM; in the assay on SN12C renal, more than 100 µM; in the assay with A549 NSCLC, more than 100 µM; with HCT-116 colon, 40.6 µM. In addition, the TGI in the assay on HCT-15 colon, in the assay on BT-549 breast and with OVCAR-8 ovarian was more than 100 µM each time.

`COc1ccc(-c2ccc(/C=N/n3c(COc4ccccc4Cl)nn(CN4CCOCC4)c3=S)o2)c([N+](=O)[O-])c1`: the GI50 with HT29 colon is 49.9 µM; in the assay with SF-268 CNS, 24 µM; with SN12C renal it was 32 µM; in the assay with A549 NSCLC, 27.4 µM; in the assay with HCT-116 colon, 19.6 µM; in the assay with HCT-15 colon it was 28.2 µM. The GI50 with EKVX NSCLC was 54.9 µM; with BT-549 breast, 14.3 µM; in the assay with OVCAR-8 ovarian, 39.4 µM. Moreover, the TGI is more than 100 µM in the assay on HT29 colon; 63.4 µM in the assay with SF-268 CNS; 96.7 µM in the assay with SN12C renal; more than 100 µM with A549 NSCLC; 41.1 µM in the assay with HCT-116 colon; more than 100 µM in the assay with HCT-15 colon. Moreover, the TGI was more than 100 µM in the assay on EKVX NSCLC, 40.7 µM with BT-549 breast and more than 100 µM in the assay on OVCAR-8 ovarian.

In the case of `O=C(Nc1ccccc1I(=O)=O)C1CCCCC1`, the GI50 in the assay with SK-MEL-2 melanoma, in the assay on HT29 colon, in the assay with SF-268 CNS, in the assay on SN12C renal, in the assay on A549 NSCLC and in the assay with HCT-15 colon was more than 100 µM throughout. Further, the GI50 with EKVX NSCLC, in the assay on BT-549 breast and in the assay with OVCAR-8 ovarian was more than 100 µM each time. Also, the TGI in the assay on SK-MEL-2 melanoma, in the assay on HT29 colon, in the assay with SF-268 CNS, with SN12C renal, in the assay with A549 NSCLC and in the assay on HCT-15 colon was more than 100 µM in each case. For the same compound, the TGI in the assay with EKVX NSCLC, with BT-549 breast and in the assay with OVCAR-8 ovarian was more than 100 µM in each case.

For the compound `CSc1nc2nc3c(nc2c(=O)n1C)C(=O)c1ccccc1C3=O`, the GI50 with SK-MEL-2 melanoma was 0.207 µM; with HT29 colon, 0.253 µM; in the assay on SF-268 CNS, 0.294 µM; in the assay on SN12C renal it was 0.157 µM; in the assay with A549 NSCLC, 0.0387 µM; in the assay with HCT-116 colon, 0.149 µM. The results for the GI50 with HCT-15 colon, with BT-549 breast and with OVCAR-8 ovarian were 0.164 µM, 0.159 µM and 0.225 µM, respectively. In addition, the TGI with SK-MEL-2 melanoma is 0.471 µM; with HT29 colon it was 0.637 µM; in the assay with SF-268 CNS, 1.09 µM; in the assay with SN12C renal, 0.307 µM; in the assay with A549 NSCLC, 0.184 µM; in the assay with HCT-116 colon, 1.13 µM. The TGI was found to be 0.429 µM with HCT-15 colon, 0.305 µM in the assay on BT-549 breast and 0.834 µM in the assay on OVCAR-8 ovarian.

The values above are taken from PubChem BioAssay (NCI).
